According to patent publication US7750003B2, “Compounds-943” (AstraZeneca AB, priority 2006, dated 2010):

Molecular target: recombinant mTOR (FLAG-tagged, residues 1362-2549) (Homo sapiens, UniProt P42345)
Assay: In vitro mTOR kinase assay (Test (a), AlphaScreen)
Type: biochemical
Settings: ATP 20 μM, read-out: Test (a): IC50 versus mTOR kinase
Experimental: (a) In Vitro mTOR Kinase Assay
Following expression in the mammalian HEK293 cell line, expressed protein was purified using the FLAG epitope tag using standard purification techniques.
Aliquots (2 μl) of each compound dilution were placed into a well of a Greiner 384-well low volume (LV) white polystyrene plate (Greiner Bio-one).
These assay solutions were incubated for 2 hours at room temperature.
The resultant signals arising from laser light excitation at 680 nm were read using a Packard Envision instrument.
The phosphorylated biotinylated peptide that is associated with AlphaScreen Streptavidin donor beads forms a complex with the p70 S6 Kinase (T389) 1A5 Monoclonal Antibody that is associated with Alphascreen Protein A acceptor beads. Upon laser light excitation at 680 nm, the donor bead: acceptor bead complex produces a signal that can be measured. Accordingly, the presence of mTOR kinase activity results in an assay signal. In the presence of an mTOR kinase inhibitor, signal strength is reduced.
mTOR enzyme inhibition for a given test compound was expressed as an IC50 value.

recombinant mTOR (FLAG-tagged, residues 1362-2549), sequence (P42345 1362-2549): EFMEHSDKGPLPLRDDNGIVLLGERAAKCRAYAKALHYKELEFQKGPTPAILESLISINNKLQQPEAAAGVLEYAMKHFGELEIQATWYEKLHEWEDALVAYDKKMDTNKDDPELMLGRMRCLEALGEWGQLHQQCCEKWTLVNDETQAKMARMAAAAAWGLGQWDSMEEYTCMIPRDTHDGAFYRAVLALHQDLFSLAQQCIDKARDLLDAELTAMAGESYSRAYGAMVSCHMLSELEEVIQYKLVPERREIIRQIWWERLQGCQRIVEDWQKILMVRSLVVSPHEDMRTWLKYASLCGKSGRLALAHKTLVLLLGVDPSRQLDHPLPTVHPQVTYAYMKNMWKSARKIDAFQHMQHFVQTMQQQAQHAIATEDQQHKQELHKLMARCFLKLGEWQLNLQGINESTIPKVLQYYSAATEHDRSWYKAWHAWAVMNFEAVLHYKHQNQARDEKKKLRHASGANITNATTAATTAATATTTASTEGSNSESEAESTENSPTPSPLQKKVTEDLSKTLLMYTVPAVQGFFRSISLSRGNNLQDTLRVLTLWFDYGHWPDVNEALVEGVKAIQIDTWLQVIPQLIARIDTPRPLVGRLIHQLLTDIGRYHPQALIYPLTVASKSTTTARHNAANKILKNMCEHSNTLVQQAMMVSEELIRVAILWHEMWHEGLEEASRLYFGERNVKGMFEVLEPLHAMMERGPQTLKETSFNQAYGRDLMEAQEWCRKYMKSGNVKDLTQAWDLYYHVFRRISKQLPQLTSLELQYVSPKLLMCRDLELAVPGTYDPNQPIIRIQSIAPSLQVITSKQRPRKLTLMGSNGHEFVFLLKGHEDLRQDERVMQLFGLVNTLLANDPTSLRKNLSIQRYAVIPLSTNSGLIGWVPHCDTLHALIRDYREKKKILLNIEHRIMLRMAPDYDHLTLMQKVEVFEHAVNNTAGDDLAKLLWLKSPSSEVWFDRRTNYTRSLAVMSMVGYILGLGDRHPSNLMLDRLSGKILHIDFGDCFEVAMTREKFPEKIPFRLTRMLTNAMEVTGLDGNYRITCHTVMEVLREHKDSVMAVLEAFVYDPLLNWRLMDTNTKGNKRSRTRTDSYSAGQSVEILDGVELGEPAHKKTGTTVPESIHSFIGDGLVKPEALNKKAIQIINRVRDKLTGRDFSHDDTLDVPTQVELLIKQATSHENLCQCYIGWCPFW

| Compound | IC50 [nM] |
| --- | --- |
| C[C@H]1COCCN1c1cc(CNc2ccccc2)nc(-c2ccc(NC(=O)Nc3ccccc3)cc2)n1 [Example 30, 1-[4-[4-(Anilinomethyl)-6-[(3S)-3-methylmorpholin-4-yl]pyrimidin-2-yl]phenyl]-3-phenyl-urea] | 900 |
| Cn1ccc(NC(=O)Nc2ccc(-c3nc(CS(C)(=O)=O)cc(N4CCOCC4)n3)cc2)n1 [Example 34c, 1-(1-methylpyrazol-3-yl)-3-[4-[4-(methylsulfonylmethyl)-6-morpholin-4-yl-pyrimidin-2-yl]phenyl]urea] | 720 |
| COc1ccc(NC(=O)Nc2ncc(-c3nc(CS(C)(=O)=O)cc(N4CCOC[C@@H]4C)n3)s2)cc1 [Example 46f, 3-(4-methoxyphenyl)-1-[5-[4-[(3S)-3-methylmorpholin-4-yl]-6-(methylsulfonylmethyl)pyrimidin-2-yl]-1,3-thiazol-2-yl]urea] | 1200 |
| C[C@H]1COCCN1c1cc(C(C)(C)S(=O)(=O)C2CC2)nc(-c2ccc(NC(=O)NC3CC3)cc2)n1 [Example 56, 3-Cyclopropyl-1-[4-[4-(2-cyclopropylsulfonylpropan-2-yl)-6-[(3S)-3-methylmorpholin-4-yl]pyrimidin-2-yl]phenyl]urea] | 2400 |
| CCNC(=O)Nc1ccc(-c2nc(CS(C)(=O)=O)cc(N3CCOC[C@@H]3C)n2)cc1Cl [Example 8i, 1-[2-Chloro-4-[4-[(3S)-3-methylmorpholin-4-yl]-6-(methylsulfonylmethyl)pyrimidin-2-yl]phenyl]-3-ethyl-urea] | 1400 |
| C[C@H]1COCCN1c1cc(CS(C)(=O)=O)nc(-c2ccc(NC(=O)N(C)C3CC3)cc2)n1 [Example 35m, 1-cyclopropyl-1-methyl-3-[4-[4-[(3S)-3-methylmorpholin-4-yl]-6-(methylsulfonylmethyl)pyrimidin-2-yl]phenyl]urea] | 2000 |
| CNC(=O)NC1CCN(c2nc(CS(C)(=O)=O)cc(N3CCOC[C@@H]3C)n2)CC1 [Example 23, 3-Methyl-1-[1-[4-[(3S)-3-methylmorpholin-4-yl]-6-(methylsulfonylmethyl)pyrimidin-2-yl]-4-piperidyl]urea] | 5600 |
| C[C@H]1COCCN1c1cc(CNC2CCN(C)CC2)nc(-c2ccc(NC(=O)Nc3ccccc3)cc2)n1 [Example 30c, 1-[4-[4-[(3S)-3-methylmorpholin-4-yl]-6-[[(1-methyl-4-piperidyl)amino]methyl]pyrimidin-2-yl]phenyl]-3-phenyl-urea] | 1100 |
| COc1ccc(NC(=O)Nc2ccn(-c3nc(CS(C)(=O)=O)cc(N4CCOC[C@@H]4C)n3)n2)cc1 [Example 25a, 3-(4-methoxyphenyl)-1-[1-[4-[(3S)-3-methylmorpholin-4-yl]-6-(methylsulfonylmethyl)pyrimidin-2-yl]pyrazol-3-yl]urea] | 4400 |
| COc1cc(-c2nc(CS(C)(=O)=O)cc(N3CCOC[C@@H]3C)n2)ccc1NC(=O)N(C)C [Example 2c, 3-[2-methoxy-4-[4-[(3S)-3-methylmorpholin-4-yl]-6-(methylsulfonylmethyl)pyrimidin-2-yl]phenyl]-1,1-dimethyl-urea] | 1200 |
| C[C@H]1COCCN1c1cc(CNC2CC2)nc(-c2ccc(NC(=O)NCc3cnn(C)c3)cc2)n1 [Example 52a, 1-[4-[4-[(cyclopropylamino)methyl]-6-[(3S)-3-methylmorpholin-4-yl]pyrimidin-2-yl]phenyl]-3-[(1-methylpyrazol-4-yl)methyl]urea] | 330 |
| C[C@H]1COCCN1c1cc(CS(C)(=O)=O)nc(-c2ccc(NC(=O)Nc3ccc(F)cc3)cc2)n1 [Example 1e, 3-(4-fluorophenyl)-1-[4-[4-[(3S)-3-methylmorpholin-4-yl]-6-(methylsulfonylmethyl)pyrimidin-2-yl]phenyl]urea] | 320 |
| C[C@H]1COCCN1c1cc(CS(C)(=O)=O)nc(-c2cnc(NC(=O)NCCN(C)C)s2)n1 [Example 46g, 3-(2-dimethylaminoethyl)-1-[5-[4-[(3S)-3-methylmorpholin-4-yl]-6-(methylsulfonylmethyl)pyrimidin-2-yl]-1,3-thiazol-2-yl]urea] | 730 |
| CS(=O)(=O)Cc1cc(N2CCOCC2)nc(-c2ccc(NC(=O)Nc3ccccc3OC(F)F)cc2)n1 [Example 7e, 3-[2-(difluoromethoxy)phenyl]-1-[4-[4-(methylsulfonylmethyl)-6-morpholin-4-yl-pyrimidin-2-yl]phenyl]urea] | 2600 |

The next molecules have a lower IC50 than those just listed; values first:

| IC50 [nM] | Compound |
| --- | --- |
| 4.7 | C[C@H]1COCCN1c1cc(C(C)(C)S(C)(=O)=O)nc(-c2ccc(NC(=O)Nc3ccon3)cc2)n1 [Example 24s, 1-[4-[4-[(3S)-3-methylmorpholin-4-yl]-6-(2-methylsulfonylpropan-2-yl)pyrimidin-2-yl]phenyl]-3-(1,2-oxazol-3-yl)urea] |
| 11 | CNC(=O)Nc1ccc(-c2nc(CS(=O)(=O)CCO)cc(N3CCOC[C@@H]3C)n2)cc1 [Example 19e, 1-[4-[4-(2-hydroxyethylsulfonylmethyl)-6-[(3S)-3-methylmorpholin-4-yl]pyrimidin-2-yl]phenyl]-3-methyl-urea] |
| 1.6 | C[C@H]1COCCN1c1cc(CN2CCS(=O)(=O)CC2)nc(-c2ccc(NC(=O)NC3CC3)cc2)n1 [Example 50, 3-Cyclopropyl-1-[4-[4-[(1,1-dioxo-1,4-thiazinan-4-yl)methyl]-6-[(3S)-3-methylmorpholin-4-yl]pyrimidin-2-yl]phenyl]urea] |
| 170 | COCCNC(=O)Nc1ccc(-c2nc(CS(C)(=O)=O)cc(N3CCOC[C@@H]3C)n2)cc1 [Example 4d, 1-(2-methoxyethyl)-3-[4-[4-[(3S)-3-methylmorpholin-4-yl]-6-(methylsulfonylmethyl)pyrimidin-2-yl]phenyl]urea] |
| 82 | CC(CO)NC(=O)Nc1ccc(-c2nc(CS(C)(=O)=O)cc(N3CCOCC3)n2)cc1 (stereo not drawn) [Example 45t, 1-(1-hydroxypropan-2-yl)-3-[4-[4-(methylsulfonylmethyl)-6-morpholin-4-yl-pyrimidin-2-yl]phenyl]urea] |
| 41 | CNC(=O)Nc1ccc(-c2nc(CS(=O)(=O)CCNC(C)=O)cc(N3CCOC[C@@H]3C)n2)cc1 [Example 26b, N-[2-[[2-[4-(methylcarbamoylamino)phenyl]-6-[(3S)-3-methylmorpholin-4-yl]pyrimidin-4-yl]methylsulfonyl]ethyl]acetamide] |
| 140 | CNC(=O)Nc1ncc(-c2nc(CS(C)(=O)=O)cc(N3CCOC[C@@H]3C)n2)s1 [Example 46, 3-Methyl-1-[5-[4-[(3S)-3-methylmorpholin-4-yl]-6-(methylsulfonylmethyl)pyrimidin-2-yl]-1,3-thiazol-2-yl]urea] |
| 120 | C[C@H]1COCCN1c1cc(C(C)(C)S(C)(=O)=O)nc(-c2ccc(NC(=O)Nc3ncccn3)cc2)n1 [Example 24u, 1-[4-[4-[(3S)-3-methylmorpholin-4-yl]-6-(2-methylsulfonylpropan-2-yl)pyrimidin-2-yl]phenyl]-3-pyrimidin-2-yl-urea] |
| 11 | C[C@H]1COCCN1c1cc(CS(=O)(=O)CCO)nc(-c2ccc(NC(=O)NC3CC3)cc2)n1 [Example 43d, 3-cyclopropyl-1-[4-[4-(2-hydroxyethylsulfonylmethyl)-6-[(3S)-3-methylmorpholin-4-yl]pyrimidin-2-yl]phenyl]urea] |
| 62 | C[C@H]1COCCN1c1cc(CS(=O)(=O)C2CC2)nc(-c2ccc(NC(=O)NC3CC3)cc2)n1 [Example 55, 3-Cyclopropyl-1-[4-[4-(cyclopropylsulfonylmethyl)-6-[(3S)-3-methylmorpholin-4-yl]pyrimidin-2-yl]phenyl]urea] |
